This note sets out measurements from article PMC4955201, “α-Glucosidase inhibitors from the bark of Mangifera mekongensis” (Chemistry Central Journal, 2016).

Read-outs that look alike come from different tables or passages of the source.

In this test the target is T1, α-Glucosidase (EC 3.2.1.20) from Saccharomyces cerevisiae (Saccharomyces cerevisiae, UniProt P53341).
T1 construct: purchased Sigma Chemical Co. (St. Louis, MO, USA)
In words: biochemical. Type of test: biochemical. The settings on record: for inhibition at 50 µM / inhibition at 100 µM / inhibition at 250 µM / inhibition at 10 µM / inhibition at 25 µM / inhibition at 1 µM / inhibition at 2.5 µM / inhibition at 5 µM: read-out: Inhibition (I %); for α-glucosidase inhibitory activity (in words): tested at 1 to 250 µM. How it is done: α-Glucosidase (EC 3.2.1.20) from Saccharomyces cerevisiae (750 UN) and p-nitrophenyl-α-D-glucopyranoside were obtained from Sigma Chemical Co. (St. Louis, MO, USA). […] Silica gel 60, 40–63 µm (230–400 mesh ASTM), for column chromatography was purchased from Scharlau (Barcelona, Spain). Analytical and preparative TLC were carried out on precoated Kiesegel 60F254 or RP-18F254 plates (0.25 or 0.5 mm thickness) (Merck, Germany). Other chemicals were of the highest grade available.
The inhibitory activity of α-glucosidase was determined according to the modified method of Kim et al.. 3 mM p-nitrophenyl-α-D-glucopyranoside (25 μL) and 0.2 U/mL α-glucosidase (25 μL) in 0.01 M phosphate buffer (pH = 7.0) were added to the sample solution (625 μL) to start the reaction. Each reaction was carried out at 37 °C for 30 min and stopped by adding 0.1 M Na2CO3 (375 μL). […] One unit of α-glucosidase activity was defined as amount of enzyme liberating p-nitrophenol ([…]) per min.

[1] abbreviates: isolated compounds, pH 7.0, 37 °C, 30 min, read-out: α-Glucosidase inhibitory activity IC50.

T1 sequence (P53341 whole entry): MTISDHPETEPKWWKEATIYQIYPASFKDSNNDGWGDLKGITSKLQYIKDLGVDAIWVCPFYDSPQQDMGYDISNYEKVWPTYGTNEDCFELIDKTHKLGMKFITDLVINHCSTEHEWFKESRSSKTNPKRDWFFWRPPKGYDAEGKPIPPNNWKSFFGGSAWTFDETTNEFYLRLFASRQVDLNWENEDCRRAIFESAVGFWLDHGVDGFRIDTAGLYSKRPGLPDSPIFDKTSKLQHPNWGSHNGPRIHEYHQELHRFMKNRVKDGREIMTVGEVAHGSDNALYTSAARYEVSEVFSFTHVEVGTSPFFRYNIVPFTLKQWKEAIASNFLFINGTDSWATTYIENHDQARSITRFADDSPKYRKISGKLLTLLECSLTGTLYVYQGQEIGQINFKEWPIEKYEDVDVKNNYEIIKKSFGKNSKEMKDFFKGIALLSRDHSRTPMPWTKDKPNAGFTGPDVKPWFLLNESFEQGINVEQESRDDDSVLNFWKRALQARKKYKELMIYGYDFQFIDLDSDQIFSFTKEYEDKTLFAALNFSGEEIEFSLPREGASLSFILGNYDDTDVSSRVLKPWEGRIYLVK

Usually inhibition stands for the percentage by which the read-out fell short of the control. Consider `C[C@H]1O[C@H](O[C@H]2[C@H](O)[C@@H](O)[C@@H](O[C@H]3[C@H](O)[C@@H](O)C(O)O[C@@H]3CO)O[C@@H]2CO)[C@H](O)[C@@H](O)[C@@H]1N[C@H]1C=C(CO)[C@@H](O)[C@H](O)[C@H]1O` (stereo partly shown) [Acarbose, reference compound], for which the inhibition at 50 µM amounted to 9.8 ± 1.1%, the inhibition at 100 µM turned out to be 21.2 ± 2.2% and the inhibition at 250 µM was found to be 59.8 ± 1.2%.

For orientation: IC50 means the midpoint of a concentration-inhibition curve. Regarding `CCCCCCCCCCCCCCCCCCC(=O)OC1CCC2(C)C(=CCC3C2CCC2(C)C(C(C)CCC(CC)C(C)C)CCC32)C1` (stereo not drawn) [Compound 1, 3β-nonadecanoylsitosterol], the inhibition at 10 µM is 24.4 ± 1.8%, the inhibition at 25 µM is 38.6 ± 1.2%, the inhibition at 50 µM stood at 67.7 ± 1.4% and the inhibition at 100 µM turned out to be 91.8 ± 1.1%. Under setting [1], the IC50 worked out at 27.7 µM.

With `CCC(CCC(C)C1CCC2C3CC=C4CC(OC(=O)CCCCCCCC(=O)O)CCC4(C)C3CCC12C)C(C)C` (stereo not drawn) [Compound 2, 3β-(8-carboxyoctanoyl)sitosterol], the inhibition at 1 µM is 15.2 ± 1.2%, the inhibition at 2.5 µM is 50.8 ± 1.1%, the inhibition at 5 µM worked out at 82.6 ± 1.4% and the inhibition at 10 µM was 93.1 ± 1.2%. The IC50 under setting [1] worked out at 2.5 µM.

As for `CC[C@H](CC[C@@H](C)[C@H]1CC[C@H]2[C@@H]3CC=C4C[C@@H](O)CC[C@]4(C)[C@H]3CC[C@]12C)C(C)C` [Compound 3, β-sitosterol], the “α-glucosidase inhibitory activity (in words)” value was “inactive”. Besides, the IC50 under setting [1] was above 250 µM.

`CC[C@H](CC[C@@H](C)[C@H]1CC[C@H]2[C@@H]3CC(=O)C4CC(=O)CC[C@]4(C)[C@H]3CC[C@]12C)C(C)C` (stereo partly shown) [Compound 4, stigmastane-3,6-dione]: the “α-glucosidase inhibitory activity (in words)” value was “inactive”. The IC50 under setting [1] was above 250 µM.

Consider `CCCCCCCCCCCCCCCC(=O)OC[C@H]1O[C@@H](O[C@H]2CC[C@@]3(C)C(=CC[C@H]4[C@@H]5CC[C@H]([C@H](C)CC[C@@H](CC)C(C)C)[C@@]5(C)CC[C@@H]43)C2)[C@H](O)[C@@H](O)[C@@H]1O` [Compound 5, β-sitosteryl-3-O-β-D-glucopyranosyl-6′-O-palmitate], for which the inhibition at 10 µM worked out at 32.1 ± 2.3%, the inhibition at 25 µM was determined as 49.7 ± 3.1%, the inhibition at 50 µM amounted to 75.9 ± 2.6% and the inhibition at 100 µM stood at 90.9 ± 1.4%. Also, the IC50 under setting [1] was 21.1 µM.

On to `CC(=CCCC(C)C1CCC2(C)C3CCC4C(C)(C)C(=O)CCC45CC35CCC12C)C(=O)O` (stereo not shown) [Compound 8, ambonic acid], for which the IC50 turned out to be 1.2 µM, the inhibition at 1 µM is 46.5 ± 1.1%, the inhibition at 2.5 µM is 62.5 ± 1.1% and the inhibition at 5 µM was determined as 78.4 ± 1.6%. For the same compound, the inhibition at 10 µM was determined as 87.5 ± 1%.

Consider `CC(=CCCC(C)C1CCC2(C)C3CCC4C(C)(C)C(O)CCC45CC35CCC12C)C(=O)O` (stereo not shown) [Compound 9, ambolic acid], for which the IC50 was determined as 112 µM, the inhibition at 50 µM came to 15.9 ± 1.1%, the inhibition at 100 µM came to 32.2 ± 1% and the inhibition at 250 µM amounted to 95.9 ± 1%.
